In US20100152206A1, “Bicyclic Dihydropyrimidines and Uses Thereof” (priority 2005, published 2010):

What was measured:
Hela cells = assay: cells; conditions: Homo sapiens, 20 h
Description: Hela cells were grown (Maliga, et. al. 2001) to 20% confluence in 384-well, clear-bottomed, black-walled NUNC plates and serial dilutions of prospective Eg5 inhibitors were added by pin transfer, as above [0277], incubated at 37° C. for 20 hours, fixed with TBS-0.1% Triton X100 supplemented with 4% formaldehyde, and stained stained for DNA, phosphorylated Ser10-Histone 3, and alpha-tubulin. Each drug concentration was inspected for the characteristic monoaster phenotype: condensed phospho-S10 positive chromosomes arranged in a rosette pattern around a circularly symmetric array of microtubules, and the absence of bi-polar mitotic spindles.

[1] = target: T1, Eg5 motor domain construct Eg5-367H (Homo sapiens, UniProt P52732); assay: Activity of Eg5 inhibitors in pure protein assay (microtubule-stimulated ATP hydrolysis, malachite green phosphate detection); type: biochemical; conditions: microtubule-stimulated ATP hydrolysis by Eg5-367H, 25 degrees, 2 hours
T1 construct: the Eg5 motor domain construct Eg5-367H; His tag (read from the 'H' in the construct name; not spelled out for this construct)
T1 sequence (P52732 18-359 limits assumed): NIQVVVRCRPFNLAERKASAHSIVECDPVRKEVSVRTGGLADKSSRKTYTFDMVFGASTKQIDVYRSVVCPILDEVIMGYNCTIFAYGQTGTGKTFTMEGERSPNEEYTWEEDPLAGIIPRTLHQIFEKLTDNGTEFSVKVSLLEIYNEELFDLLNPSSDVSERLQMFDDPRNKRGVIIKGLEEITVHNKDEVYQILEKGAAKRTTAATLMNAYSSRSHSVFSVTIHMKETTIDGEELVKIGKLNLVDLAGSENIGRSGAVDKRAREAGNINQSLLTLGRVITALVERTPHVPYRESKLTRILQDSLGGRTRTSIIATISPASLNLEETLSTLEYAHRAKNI
Description: We utilized a colorimetric phosphate detection assay (Funk, 2004) to measure microtubule-stimulated ATP hydrolysis by the Eg5 motor domain construct Eg5-367H (Maliga, 2002) as a function of drug concentration. Stocks solutions of each compound were prepared by serial dilution into DMSO and 0.1 microliters was added by pin transfer into KC25 buffer (20 mM PIPES-KOH, pH 6.9, 25 mM KCl, 2 mM MgC12) supplemented with 1 mM ATP-KOH, pH 6.9. KC25 supplemented with 10 micromolar taxol, 50 nanomolar Eg5-367H, and 1 micromolar taxol-polymerized microtubules was then added and the reaction incubated at 25 degrees for 2 hours. Malachite green assay solution (7% (w/v) perchloric acid, 0.0075% (w/v) malachite green oxalate, 0.2% (w/v) sodium molybdate dihydrate) was added to each reaction and the optical absorbance at 640 nm (640) was measured after a 30 minute incubation using a Wallac II automated plate reader. A640 as a function of! drug concentration (C) was fit to the equation A640=A0+B/(1+C/IC50) using Kaleidegraph 3.0, A0 is the basal A640, B is the maximum increase in A640, and IC50 is the drug concentration that inhibits half the Eg5 activity.

Structure (SMILES) | IC50 (Hela cells) [µM] | IC50 [1] [µM]
O=C1NCCC2=C1C(c1cccc(O)c1)NC(=S)N2 (stereo not shown) [Entry 1] | 50 | 1.5
CCOC(=O)C1=C(CCN)NC(=S)NC1c1cccc(O)c1 (stereo not shown) [Entry 2] | > 300 | > 30
CCOC(=O)C1=C(CCNC(=O)OC(C)(C)C)NC(=S)NC1c1cccc(O)c1 (stereo not shown) [Entry 3] | > 300 | > 30
CCOC(=O)C1=C(CCO[Si](C(C)C)(C(C)C)C(C)C)NC(=S)NC1c1cccc(O)c1 (stereo not shown) [Entry 4] | > 300 | > 30
O=C1OCCC2=C1C(c1cccc(O)c1)NC(=S)N2 (stereo not shown) [Entry 5] | 30 | 0.5
CCOC(=O)C1=C(CN)NC(=S)NC1c1cccc(O)c1 (stereo not shown) [Entry 6] | 200 | 12
CCOC(=O)C1=C(CO)NC(=S)NC1c1cccc(O)c1 (stereo not shown) [Entry 7] | 300 | 30
O=C1OCC2=C1C(c1cccc(O)c1)NC(=S)N2 (stereo not shown) [Entry 8] | 300 | 20
O=C1NCC2=C1C(c1cccc(O)c1)NC(=S)N2 (stereo not shown) [Entry 9] | > 300 | 12
CCOC(=O)C1=C(C)NC(=S)NC1c1cccc(N)c1 (stereo not shown) [Entry 10] | > 300 | > 30
CCOC(=O)C1=C(C)NC(=S)NC1c1cccc(O)c1 (stereo not shown) [Monastrol, reference compound] | 300 | 12
